According to US20240247080A1, “GLP1/GIP/NPY2 RECEPTOR TRIPLE AGONISTS” (Boehringer Ingelheim International GmbH, priority 2022, published 2024):
Where two headings read alike, the source gives them in different places. Starred links: 1 amine or outer side, 2 acyl side, 3 side chain; linkers in the order of their positions; H or OH if unused. Non-standard residues stand in square brackets, D forms with d. Groups on a side chain read outwards from the residue. *: point of attachment. C20 diacid = O=C(O)CCCCCCCCCCCCCCCCCCC(=O)*; C18 diacid = O=C(O)CCCCCCCCCCCCCCCCC(=O)*; γGlu = O=C(O)[C@H](CCC(=O)[*:2])N[*:1]; AEEA = NCCOCCOCC(=O)O; Aib = CC(C)(N)C(=O)O; Ahx = NCCCCCC(=O)O

Columns and labels:
Type in all cases: cell-based
Conditions in all cases: CreLuc reporter gene assay
hGIPR = target: T1, hGIPR (Homo sapiens, UniProt P48546); test: hGIPR CreLuc reporter gene assay in 0.5% and 100% plasma
T1 construct: expressed in transfected cells; host or cells: CHO cells carrying a CRE-luciferase reporter gene
T1 sequence (P48546 22-466): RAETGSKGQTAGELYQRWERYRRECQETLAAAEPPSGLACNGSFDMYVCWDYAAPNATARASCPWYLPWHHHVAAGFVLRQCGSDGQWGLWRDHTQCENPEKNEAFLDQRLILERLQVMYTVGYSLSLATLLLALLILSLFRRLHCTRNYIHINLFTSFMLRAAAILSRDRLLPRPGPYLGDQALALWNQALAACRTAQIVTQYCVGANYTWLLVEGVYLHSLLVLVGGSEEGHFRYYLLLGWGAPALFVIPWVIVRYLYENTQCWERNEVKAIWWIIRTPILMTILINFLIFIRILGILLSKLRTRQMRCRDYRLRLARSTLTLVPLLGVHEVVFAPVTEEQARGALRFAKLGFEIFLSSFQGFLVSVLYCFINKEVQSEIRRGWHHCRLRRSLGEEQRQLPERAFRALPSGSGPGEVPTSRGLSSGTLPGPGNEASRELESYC
Outline: (§1)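 HEK-293 cells co-expressing GLP-1 or NPY2 receptor and CHO cells expressing GIP receptor, each carrying a CRE-driven luciferase reporter, were stimulated with peptides for 4 hours at 37 °C. Luminescence was read after Bright-Glo addition. EC50 came from 8-point, four-decade curves fitted by variable-slope non-linear regression.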

hGLP1R = target: T2, hGLP1R (Homo sapiens, UniProt P43220); test: hGLP1R CreLuc reporter gene assay in 0.5% and 100% plasma
T2 construct: expressed in transfected cells; host or cells: HEK-293 cells carrying a CRE-luciferase reporter gene
T2 sequence (P43220 24-463): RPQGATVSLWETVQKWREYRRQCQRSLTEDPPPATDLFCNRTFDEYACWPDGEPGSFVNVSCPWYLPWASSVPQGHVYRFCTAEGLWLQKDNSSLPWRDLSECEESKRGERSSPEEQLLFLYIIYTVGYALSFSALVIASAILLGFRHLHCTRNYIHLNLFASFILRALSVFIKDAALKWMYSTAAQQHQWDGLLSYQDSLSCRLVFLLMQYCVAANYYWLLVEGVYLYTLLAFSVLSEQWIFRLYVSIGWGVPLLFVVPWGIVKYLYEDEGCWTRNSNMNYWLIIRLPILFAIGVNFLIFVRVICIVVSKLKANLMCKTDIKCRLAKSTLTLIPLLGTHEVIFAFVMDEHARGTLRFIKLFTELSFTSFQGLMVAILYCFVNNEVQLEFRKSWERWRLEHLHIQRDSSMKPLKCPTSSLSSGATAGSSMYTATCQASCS
Outline: as §1

hNPY2R = target: T3, hNPY2R (Homo sapiens, UniProt P49146); test: hNPY2R CreLuc reporter gene assay in 0.5% and 100% plasma
T3 construct: expressed in transfected cells; host or cells: HEK-293 cells carrying a CRE-luciferase reporter gene
T3 sequence (P49146 1-381): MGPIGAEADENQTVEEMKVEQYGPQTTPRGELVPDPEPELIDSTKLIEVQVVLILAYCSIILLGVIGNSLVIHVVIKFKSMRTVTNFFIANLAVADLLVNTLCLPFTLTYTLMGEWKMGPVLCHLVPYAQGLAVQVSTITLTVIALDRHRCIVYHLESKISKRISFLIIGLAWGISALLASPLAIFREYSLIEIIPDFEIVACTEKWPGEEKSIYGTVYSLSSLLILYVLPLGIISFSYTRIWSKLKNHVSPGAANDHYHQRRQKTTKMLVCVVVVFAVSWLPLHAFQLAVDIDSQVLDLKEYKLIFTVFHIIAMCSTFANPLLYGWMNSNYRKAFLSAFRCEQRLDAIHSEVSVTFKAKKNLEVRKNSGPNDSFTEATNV
Outline: as §1

[1] = 0.5% human plasma, read-out: hGIPR 0.5% hP
[2] = 0.5% human plasma, read-out: hGLP1R 0.5% hP
[3] = 100% human plasma, read-out: hNPY2R 100% hP
[4] = 100% human plasma, read-out: hGIPR 100% hP
[5] = 0.5% human plasma, read-out: hNPY2R 0.5% hP
[6] = 100% human plasma, read-out: hGLP1R 100% hP

| EC50 (hGIPR; [1]) [nM] | EC50 (hGLP1R; [2]) [nM] | EC50 (hNPY2R; [3]) [nM] | EC50 (hGIPR; [4]) [nM] | EC50 (hNPY2R; [5]) [nM] | EC50 (hGLP1R; [6]) [nM] | Substance |
| --- | --- | --- | --- | --- | --- | --- |
| 0.43 | 0.24 | 46.3 | – | – | – | H-Y[Aib]EGTFTSDYSI[Aib]LEKQAQ[Aib]AFVEWLIK([AEEA-AEEA-γGlu-γGlu-γGlu-γGlu-C20 diacid])GGPSEPASLRHYYNWLTRQRY-NH2 [Compound 226, Y-Aib-E-G-T-F-T-S-D-Y-S-I-Aib-L-E-K-Q-A-Q-Aib-A-F-V-E-W-L-I-K(1,3)-GGPSEPASLRHYYNWLTRQRY-NH2.C20DA-gGlu-gGlu-gGlu-gGlu-OEG-OEG(1,2)] |
| 0.29 | 0.1 | 48.7 | 1.53 | 10.5 | – | H-Y[Aib]EGTFTSDYSI[Aib]LEKQAQ[Aib]AFVEWLIK([AEEA-AEEA-γGlu-γGlu-γGlu-γGlu-C20 diacid])GGPSSPASLRHYYNWLTRQRY-NH2 [Compound 175, Y-Aib-E-G-T-F-T-S-D-Y-S-I-Aib-L-E-K-Q-A-Q-Aib-A-F-V-E-W-L-I-K(1,3)-GGPSSPASLRHYYNWLTRQRY-NH2.C20DA-gGlu-gGlu-gGlu-gGlu-OEG-OEG(1,2)] |
| 0.22 | 0.12 | 45.9 | – | 12.4 | 3.11 | H-Y[Aib]EGTFTSDYSI[Aib]LEKQAQ[Aib]AFVEWLIK([AEEA-AEEA-γGlu-γGlu-γGlu-γGlu-γGlu-C18 diacid])GGPSSPASLRHYYNWLTRQRY-NH2 [Compound 140, Y-Aib-E-G-T-F-T-S-D-Y-S-I-Aib-L-E-K-Q-A-Q-Aib-A-F-V-E-W-L-I-K(1,3)-GGPSSPASLRHYYNWLTRQRY-NH2.C18DA-gGlu-gGlu-gGlu-gGlu-gGlu-OEG-OEG(1,2)] |
| 0.22 | 0.1 | 27.2 | 1.42 | 10.8 | – | H-Y[Aib]EGTFTSDYSI[Aib]LEKQAQ[Aib]AFVEWLIK([AEEA-AEEA-γGlu-γGlu-γGlu-γGlu-γGlu-C20 diacid])GGPSSGASLRHYYNWLTRQRY-NH2 [Compound 229, Y-Aib-E-G-T-F-T-S-D-Y-S-I-Aib-L-E-K-Q-A-Q-Aib-A-F-V-E-W-L-I-K(1,3)-GGPSSGASLRHYYNWLTRQRY-NH2.C20DA-gGlu-gGlu-gGlu-gGlu-gGlu-OEG-OEG(1,2)] |
| 0.31 | 0.13 | – | – | 26.4 | – | H-Y[Aib]EGTFTSDYSI[Aib]LEKQAQ[Aib]AFVEWLIK([Ahx-γGlu-γGlu-γGlu-γGlu-γGlu-C18 diacid])GGPSSGASLRHYYNWLTRQRY-NH2 [Compound 260, Y-Aib-E-G-T-F-T-S-D-Y-S-I-Aib-L-E-K-Q-A-Q-Aib-A-F-V-E-W-L-I-K(1,3)-GGPSSGASLRHYYNWLTRQRY-NH2.C18DA-gGlu-gGlu-gGlu-gGlu-gGlu-AHX(1,2)] |
| 0.58 | 0.23 | 99.3 | 3.27 | – | – | H-Y[Aib]EGTFTSDYSI[Aib]LEKQAQ[Aib]AFVEWLIK([Ahx-γGlu-γGlu-γGlu-γGlu-γGlu-C20 diacid])GGPSEGASLRHYYNWLTRQRY-NH2 [Compound 301, Y-Aib-E-G-T-F-T-S-D-Y-S-I-Aib-L-E-K-Q-A-Q-Aib-A-F-V-E-W-L-I-K(1,3)-GGPSEGASLRHYYNWLTRQRY-NH2.C20DA-gGlu-gGlu-gGlu-gGlu-gGlu-AHX(1,2)] |
| 0.36 | 0.2 | 122 | – | – | – | H-Y[Aib]EGTFTSDYSI[Aib]LEKQAQ[Aib]AFVEWLIK([Ahx-γGlu-γGlu-γGlu-γGlu-γGlu-γGlu-C18 diacid])GGPSEGASLRHYYNWLTRQRY-NH2 [Compound 303, Y-Aib-E-G-T-F-T-S-D-Y-S-I-Aib-L-E-K-Q-A-Q-Aib-A-F-V-E-W-L-I-K(1,3)-GGPSEGASLRHYYNWLTRQRY-NH2.C18DA-gGlu-gGlu-gGlu-gGlu-gGlu-gGlu-AHX(1,2)] |
| 0.18 | 0.1 | – | 0.7 | 14.3 | – | H-Y[Aib]EGTFTSDYSI[Aib]LEKQAQ[Aib]AFVEWLIK([Glu-Glu-Glu-Glu-C18 diacid])GGPSEGASLRHYYNWLTRQRY-NH2 [Compound 291, Y-Aib-E-G-T-F-T-S-D-Y-S-I-Aib-L-E-K-Q-A-Q-Aib-A-F-V-E-W-L-I-K(1,3)-GGPSEGASLRHYYNWLTRQRY-NH2.C18DA-E-E-E-E(1,2)] |
| 0.24 | 0.31 | – | 3.01 | 23.8 | – | H-Y[Aib]EGTFTSDYSI[Aib]LEKQAQ[Aib]AFVEWLIK([γGlu-γGlu-γGlu-γGlu-C18 diacid])GGPEEGASLRHYYNWLTRQRY-NH2 [Compound 272, Y-Aib-E-G-T-F-T-S-D-Y-S-I-Aib-L-E-K-Q-A-Q-Aib-A-F-V-E-W-L-I-K(1,3)-GGPEEGASLRHYYNWLTRQRY-NH2.C18DA-gGlu-gGlu-gGlu-gGlu(1,2)] |
| 0.21 | 0.08 | 55.2 | 0.89 | – | – | H-Y[Aib]EGTFTSDYSI[Aib]LEKQAQ[Aib]AFVEWLIK([γGlu-γGlu-γGlu-γGlu-C18 diacid])GGPSEGASLRHYYNWLTRQRY-NH2 [Compound 294, Y-Aib-E-G-T-F-T-S-D-Y-S-I-Aib-L-E-K-Q-A-Q-Aib-A-F-V-E-W-L-I-K(1,3)-GGPSEGASLRHYYNWLTRQRY-NH2.C18DA-gGlu-gGlu-gGlu-gGlu(1,2)] |
| 0.16 | 0.13 | – | – | 19.9 | – | H-Y[Aib]EGTFTSDYSI[Aib]LEKQAQ[Aib]AFVEWLIK([γGlu-γGlu-γGlu-γGlu-γGlu-C18 diacid])GGPSEGASLRHYYNWLTRQRY-NH2 [Compound 292, Y-Aib-E-G-T-F-T-S-D-Y-S-I-Aib-L-E-K-Q-A-Q-Aib-A-F-V-E-W-L-I-K(1,3)-GGPSEGASLRHYYNWLTRQRY-NH2.C18DA-gGlu-gGlu-gGlu-gGlu-gGlu(1,2)] |
| 0.24 | 0.08 | – | 0.64 | 13.4 | 0.74 | H-Y[Aib]EGTFTSDYSI[Aib]LEKQAQ[Aib]AFVEWLIK([γGlu-γGlu-γGlu-γGlu-γGlu-C18 diacid])GGPSSGASLRHYYNWLTRQRY-NH2 [Compound 253, Y-Aib-E-G-T-F-T-S-D-Y-S-I-Aib-L-E-K-Q-A-Q-Aib-A-F-V-E-W-L-I-K(1,3)-GGPSSGASLRHYYNWLTRQRY-NH2.C18DA-gGlu-gGlu-gGlu-gGlu-gGlu(1,2)] |
| 0.2 | 0.1 | 107 | – | – | – | H-Y[Aib]EGTFTSDYSI[Aib]LEKQAQ[Aib]AFVEWLIK([γGlu-γGlu-γGlu-γGlu-γGlu-C18 diacid])GGPSSPASLRHYYNWLTRQRY-NH2 [Compound 180, Y-Aib-E-G-T-F-T-S-D-Y-S-I-Aib-L-E-K-Q-A-Q-Aib-A-F-V-E-W-L-I-K(1,3)-GGPSSPASLRHYYNWLTRQRY-NH2.C18DA-gGlu-gGlu-gGlu-gGlu-gGlu(1,2)] |
| 0.7 | 0.14 | 56.3 | 1.75 | 11.1 | – | H-Y[Aib]EGTFTSDYSI[Aib]LEKQAQ[Aib]AFVEWLIK([γGlu-γGlu-γGlu-γGlu-γGlu-C20 diacid])GGPSEGASLRHYYNWLTRQRY-NH2 [Compound 289, Y-Aib-E-G-T-F-T-S-D-Y-S-I-Aib-L-E-K-Q-A-Q-Aib-A-F-V-E-W-L-I-K(1,3)-GGPSEGASLRHYYNWLTRQRY-NH2.C20DA-gGlu-gGlu-gGlu-gGlu-gGlu(1,2)] |
| 1.03 | 2.65 | – | – | 11 | – | H-Y[Aib]EGTFTSDYSI[Aib]LEKQAQ[Aib]AFVEWLIK([γGlu-γGlu-γGlu-γGlu-γGlu-γGlu-C20 diacid])GGGSEYVSLRHYYNWLTRQRY-NH2 [Compound 65, Y-Aib-E-G-T-F-T-S-D-Y-S-I-Aib-L-E-K-Q-A-Q-Aib-A-F-V-E-W-L-I-K(1,3)-GGGSEYVSLRHYYNWLTRQRY-NH2.C20DA-gGlu-gGlu-gGlu-gGlu-gGlu-gGlu(1,2)] |
| 0.65 | 0.29 | – | 2.81 | 18.3 | – | H-Y[Aib]EGTFTSDYSI[Aib]LEKQAQ[Aib]AFVEWLIK([γGlu-γGlu-γGlu-γGlu-γGlu-γGlu-C20 diacid])GGPSEGASLRHYYNWLTRQRY-NH2 [Compound 305, Y-Aib-E-G-T-F-T-S-D-Y-S-I-Aib-L-E-K-Q-A-Q-Aib-A-F-V-E-W-L-I-K(1,3)-GGPSEGASLRHYYNWLTRQRY-NH2.C20DA-gGlu-gGlu-gGlu-gGlu-gGlu-gGlu(1,2)] |
